From patent publication US8153791B2, “Substituted pyrimidinyl oxime kinase inhibitors” (Janssen Pharmaceutica N.V., priority 2005, dated 2012)
pIC50: −log10 of the molar value.

Key:
BT474 breast carcinoma = assay: In vitro cell proliferation inhibition, BT474; type: cell-based; conditions: Homo sapiens, BT-474; BT474 cells, 14C-thymidine incorporation; read-out: IC50 BT474
Excerpt: (§1) The ability of a test compound to inhibit unregulated in vitro cell proliferation may be determined by measuring incorporation of ^14C-labelled thymidine into newly synthesized DNA within cell lines derived from carcinomas originating from several tissues. Accordingly, the effect of a test compound on proliferation of cells with a variety of phenotypes may be determined.
(§2) Carcinoma cell lines used include the HeLa cervical adenocarcinoma from the American Type Culture Collection (ATCC Cat. #CCL2), SK-OV-3 ovarian carcinoma (ATCC Cat. #HTB-77), MCF-7 breast carcinoma (ATCC Cat. #HTB-22), BT474 breast carcinoma (ATCC Cat. #HTB-20), SKBR3 breast carcinoma (ATCC Cat. #HTB-30), A431 epidermoid carcinoma (ATCC Cat. #CRL-1555) and NCI-N87 gastric carcinoma (ATCC Cat. #CRL-5822).
(§3) The carcinoma cells are trypsinized and counted. The cells (3000-8000 count) are added to each well of a 96-well CytoStar tissue culture treated scintillating microplate (Amersham #RPNQ0160) in complete medium (100 μL) and the plate is then incubated in complete medium for 24 hrs at 37° C. in an inert atmosphere containing 5% CO2.
(§4) Test compound (1 μL) in 100% DMSO is added to the plate test-wells with DMSO only added to control-wells. The plate is incubated in complete medium for a second 24 hr period at 37° C. in an atmosphere containing 5% CO2.
(§5) An aliquot of a solution of Methyl ^14C-thymidine (56 mC/mmol) (NEN #NEC568 or Amersham #CFA532) and complete medium (20 μL to provide 0.2 μCi/well) is then added to each well and the plate is incubated for a third 24 hr period at 37° C. in an atmosphere containing 5% CO2.
(§6) The plate contents are then discarded, the plate is washed twice with PBS (200 μL) and then PBS (200 μL) is added to each well. The plate is sealed and the degree of methyl ^14C-thymidine incorporation is quantified on a Packard Top Count.
(§7) Cell proliferation of the Hela cell line was measured using the ATP-Lite method as described in the ATP Lite Kit (Perkin-Elmer Kit Number 6106941) or the C^14 method as described above. Cell proliferation of the other cell lines was measured using the C^14 method.
(§8) The term “NT” means that the compound indicated was not tested in a particular cell line. The lack of such testing is not intended to imply a belief that the compound is not otherwise active in a particular cell line or any other cell line not tested.

MCF-7 breast carcinoma = assay: In vitro cell proliferation inhibition, MCF-7; type: cell-based; conditions: Homo sapiens, MCF7; MCF-7 cells, 14C-thymidine incorporation
Excerpt: as §1, §2, §3, §4, §5, §6, §7, §8

[1] = system: HeLa cervical adenocarcinoma; assay: In vitro cell proliferation inhibition, HeLa; type: cell-based; conditions: Homo sapiens; HeLa cell line; ATP-Lite method or C14 thymidine method; read-out: HeLa IC50
EGFR = target: T1, EGFR (Homo sapiens, UniProt P00533); assay: EGFR Kinase Assay; type: biochemical;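 further: recombinant GST-tagged EGFR expressed in Sf9 cells, phosphorylating biotinylated polyGluTyr with γ-33P ATP on Streptavidin Flashplates, 1 h at 30 °C, scintillation counting, inhibition relative to plate maximum and minimum signals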
T1 construct: The intracellular portion of EGFR started at nucleotide 2189 (corresponding to amino acid 667) and ended at the termination codon; made in house; host or cells: Sf9 insect cells (baculovirus)
T1 sequence (P00533 669-1210 limits assumed): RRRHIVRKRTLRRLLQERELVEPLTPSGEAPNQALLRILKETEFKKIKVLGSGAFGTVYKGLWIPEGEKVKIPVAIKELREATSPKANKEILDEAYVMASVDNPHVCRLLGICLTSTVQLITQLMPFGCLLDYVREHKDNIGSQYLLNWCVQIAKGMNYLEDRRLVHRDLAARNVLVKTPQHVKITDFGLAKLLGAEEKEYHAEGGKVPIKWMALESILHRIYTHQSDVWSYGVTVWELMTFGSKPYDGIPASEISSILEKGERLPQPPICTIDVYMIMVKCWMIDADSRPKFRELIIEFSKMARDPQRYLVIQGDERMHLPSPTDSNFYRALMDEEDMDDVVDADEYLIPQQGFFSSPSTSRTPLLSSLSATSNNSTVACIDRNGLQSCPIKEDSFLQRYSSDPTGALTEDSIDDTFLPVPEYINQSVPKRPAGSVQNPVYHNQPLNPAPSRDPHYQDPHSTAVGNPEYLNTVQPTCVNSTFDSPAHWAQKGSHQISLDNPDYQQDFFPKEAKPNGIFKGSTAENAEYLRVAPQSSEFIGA

[2] = system: NCI-N87 gastric carcinoma; assay: In vitro cell proliferation inhibition, NCI-N87; type: cell-based; conditions: Homo sapiens, NCI-N87; N87 cells, 14C-thymidine incorporation; read-out: IC50 N87
Excerpt: as §1, §2, §3, §4, §5, §6, §7, §8

SKBR3 breast carcinoma = assay: In vitro cell proliferation inhibition, SKBR3; type: cell-based; conditions: Homo sapiens, SK-BR-3; SKBR3 cells, 14C-thymidine incorporation; read-out: IC50 SKBR3
Excerpt: as §1, §2, §3, §4, §5, §6, §7, §8

[3] = system: A431 epidermoid carcinoma; assay: In vitro cell proliferation inhibition, A431; type: cell-based; conditions: Homo sapiens, A-431; A431 cells, 14C-thymidine incorporation; read-out: IC50 A431
Excerpt: as §1, §2, §3, §4, §5, §6, §7, §8

[4] = system: A431 epidermoid carcinoma cells; assay: A431 Human Tumor Xenograft Model; type: in vivo, nu/nu mice; conditions: treatment groups 5-10, 100 mg/kg oral once daily for 30 days
Excerpt: The A431 epidermoid carcinoma cell line overexpresses EGFR, activating signaling pathways responsible for driving the proliferation, invasion and survival of cancer cells and forming tumors in nude mice (Giard D J, Aaronson S A, Todaro G J, Arnstein P, Kersey J H, Dosik H, Parks W P, In vitro cultivation of human tumors: establishment of cell lines derived from a series of solid tumors, J. Natl. Cancer Inst., 1973, 51, 1417-1423; and, Kawamoto T, Sato J D, Le A, Polikoff J, Sato G H, Mendelsohn J, Growth stimulation of A431 cells by epidermal growth factor: identification of high-affinity receptors for epidermal growth factor by an anti-receptor monoclonal antibody, Proc. Natl. Acad. Sci. USA, 1983, 80, 1337-1341).
Female nu/nu mice (Charles River; 8 to 9 weeks of age) were implanted subcutaneously in the flank with 4×10^6 A431 epidermoid carcinoma cells (obtained from the American Type Culture Collection, ATCC Cat. #CRL-1555). Animals were weighed twice weekly during the study and examined frequently.
Tumor size was monitored twice weekly and then daily as the neoplasms reached the target weight range (about 75 mg). Animals were pair-matched when tumors were in the 62 to 126 mg range (group mean tumor size: 70 to 74 mg). Estimated tumor weight was calculated using the formula of Example 4.
A test compound was orally administered daily in the test treatment group after the tumor reached the target weight. For treatment groups 1 and 2, each dose of test compound was administered once daily for 25 days. For treatment group 3, each dose of test compound was administered twice daily for 25 days. For treatment group 4, the test compound was administered twice daily for 30 days. For treatment group 5-10, the test compound was administered once daily for 30 days.
(§9) Statistical significance was evaluated by comparing the vehicle group to the test group using a two tailed Students t test. The term “NC” means that the P value for the treatment group indicated was not calculated. The lack of such calculation is not intended to imply a belief that the activity of the compound is not otherwise statistically significant in this particular cell line or in any other cell line not tested.

HER-2 = target: T2, HER-2 (Homo sapiens, UniProt P04626); assay: HER-2 Kinase Assay; type: biochemical; conditions: read-out: HER2 IC50;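 further: HER2 kinase reaction read by scintillation counting, inhibition scaled between maximum and minimum signals set on each plate, IC50 from inhibition against log concentration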
T2 construct: purchased Proqinase (Freiburg, Germany)
T2 sequence (P04626 679-1255): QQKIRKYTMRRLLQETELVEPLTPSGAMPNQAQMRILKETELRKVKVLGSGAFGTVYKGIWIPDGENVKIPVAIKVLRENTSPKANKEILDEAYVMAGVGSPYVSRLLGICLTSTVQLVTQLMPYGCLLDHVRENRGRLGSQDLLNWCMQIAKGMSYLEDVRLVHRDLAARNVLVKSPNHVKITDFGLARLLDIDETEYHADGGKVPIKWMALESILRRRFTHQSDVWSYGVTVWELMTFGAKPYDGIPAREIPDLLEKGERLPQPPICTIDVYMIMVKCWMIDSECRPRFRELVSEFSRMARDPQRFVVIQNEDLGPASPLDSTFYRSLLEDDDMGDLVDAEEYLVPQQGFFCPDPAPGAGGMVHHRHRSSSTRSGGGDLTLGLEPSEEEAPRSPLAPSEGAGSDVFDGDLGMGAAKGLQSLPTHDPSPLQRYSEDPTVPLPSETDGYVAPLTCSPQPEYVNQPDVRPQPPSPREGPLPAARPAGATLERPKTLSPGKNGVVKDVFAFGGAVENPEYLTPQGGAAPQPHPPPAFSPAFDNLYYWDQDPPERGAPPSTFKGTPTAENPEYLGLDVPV

[5] = system: N87 gastric carcinoma cells; assay: N87 Human Tumor Xenograft Model; type: in vivo, nu/nu mice; conditions: treatment groups 5-10, 100 mg/kg oral once daily for 30 days
Excerpt: The N87 gastric carcinoma cell line overexpresses HER-2 as a result of gene amplification and forms tumors in nude mice (Kasprzyk P G, Song S U, Di Fiore P P, King C R, Therapy of an animal model of human gastric cancer using a combination of anti-erbB-2 monoclonal antibodies, Cancer Res., 1992, 52, 2771-2776).
Female nu/nu mice (Charles River; 8 to 9 weeks of age) were implanted subcutaneously with from 3×10^6 to 5×10^6 N87 gastric carcinoma cells (obtained from the American Type Culture Collection, ATCC Cat. #CRL-5822) in the flank. Animals were weighed twice weekly during the study and examined frequently.
Tumor size was monitored twice weekly and then daily as the neoplasms reached the target weight range (about 75 mg). Animals were pair-matched when tumors were in the 62 to 126 mg range (group mean tumor size: 70 to 74 mg). Estimated tumor weight was calculated using the formula: […]
A test compound was orally administered daily in the test treatment group after the tumor reached the target weight. For treatment group 1, the test compound was administered once daily for 35 days. For treatment group 2, the test compound was administered once daily for 30 days. For treatment group 3, each dose of test compound was administered once daily for 30 days. For treatment group 4, each dose of test compound was administered once daily for 36 days. For treatment group 5-10, the test compound was administered once daily for 30 days.
Tumor weight was measured daily for subjects (n=8) in the test group and the matched subjects (n=8) in the vehicle-treated group.
The tumor growth inhibition (in percent) was calculated on the last day of the study using the formula: […]
as §9

[6] = system: SK-OV-3 ovarian carcinoma; assay: In vitro cell proliferation inhibition, SK-OV-3; type: cell-based; conditions: Homo sapiens; SK-OV-3 cells, 14C-thymidine incorporation
Excerpt: as §1, §2, §3, §4, §5, §6, §7, §8

| pIC50 (BT474 breast carcinoma) | pIC50 (MCF-7 breast carcinoma) | pIC50 [1] | pIC50 (EGFR) | pIC50 [2] | pIC50 (SKBR3 breast carcinoma) | pIC50 [3] | pIC50 (HER-2) | pIC50 [6] | SMILES | A431 Tumor Growth Inhibition TGI [4] [%] | N87 Tumor Growth Inhibition TGI [5] [%] |
| --- | --- | --- | --- | --- | --- | --- | --- | --- | --- | --- | --- |
| 7.40 | 4.00 | 4.66 | 7.70 | 7.15 | 7.70 | 6.22 | 8.10 | 4.00 | Nc1ncnc(Nc2ccc(OCc3cccc(F)c3)c(Cl)c2)c1/C=N/OCCN1CCOCC1 [Cpd 93, (5E)-4-amino-6-[3-chloro-4-(3-fluoro-benzyloxy)-phenylamino]-pyrimidine-5-carbaldehyde O-(2-morpholin-4-yl-ethyl)-oxime] | 64.0 | 59.9 |
| 6.30 | 6.00 | 5.21 | 7.70 | 6.40 | 6.30 |  | 7.40 | 6.00 | Nc1ncnc(Nc2ccc(OCc3cccc(F)c3)c(Cl)c2)c1/C=N/OCCN1CCCCC1 [Cpd 94, (5E)-4-amino-6-[3-chloro-4-(3-fluoro-benzyloxy)-phenylamino]-pyrimidine-5-carbaldehyde O-(2-piperidin-1-yl-ethyl)-oxime] | 66 | 47.1 |
